Results taken from patent US4042702A, “Halogen pyrazole derivatives, a method for producing these halogen pyrazole derivatives, medicaments containing and methods of using them” (Byk Gulden Lomberg Chemische Fabrik GmbH, priority 1973, dated 1977).

Columns and labels:
[1] = tested on: ultraviolet erythema of the skin on the back of the guinea pig; assay: Retardation of the UV-Erythema (skin on the back of the guinea pig); assay type: in vivo; conditions: for ED25: Cavia porcellus, light or radiation study, po, guinea pig, retardation of 25 % 5 hours after irradiation; for relative effect (Retardation of the UV-Erythema): relative to phenyl butazone (I) = 1,0
Experimental: (§1) The antiinflammatory action of the standard preparation and the compounds of this invention, respectively, was determined
on the retardation at the ultraviolet erythema of the skin on the back of the guinea pig [Winder et al. Arch. int. Pharmacodyn. 116 (1958) 261], wherein in table 1 those doses are shown which cause a retardation of 25 % 5 hours after irradiation;

[2] = tested on: granulation tissue formation (cotton granuloma) in rats; assay: Retardation of the granulation tissue formation (cotton granuloma, chronic inflammation model); assay type: in vivo, rat; conditions: for ED20: po, 168 h, 7 × p.o., rats, 20% inhibition, cotton granuloma; for relative effect (Retardation of the granulation tissue formation): relative to phenyl butazone (I) = 1.0
Experimental: as §1
on a chronic inflammation model (cotton granuloma) wherein the influence of the compounds on the granulation tissue formation after subcutaneous implantation of cotton plugs in rats was studied after daily administration on 7 following days in taking pattern from the method described by Winter et al. [J. Pharmacol. exp. Therap.

[3] = tested on: carrageenin edema of the rear paw of the rat; assay: Retardation of the Carrageenin Edema of the rear paw of the rat; assay type: in vivo; conditions: for ED25: po, rat, single administration, mean retardation of 25 % 3 and 5 hours after administration; for relative effect (Retardation of the Carrageenin Edema): relative to phenyl butazone (I) = 1.0
Experimental: as §1
on the retarding inflammation at the carrageenin edema of the rear paw of the rat [Winter et al. Proc. Soc. exp. Biol. Med. 111 (1962) 544], wherein in table 2 those doses are shown which cause a mean retardation of 25 % 3 and 5 hours after single administration of the substance to be tested;

[4] = tested on: rats; conditions: 7 × p.o., 5 % of animals died within 10 days
[5] = in vivo; conditions: rat, po
[6] = in vivo; conditions: mouse, po

SMILES: CCCCC1C(=O)N(c2ccccc2)N(c2ccccc2)C1=O [I, phenyl butazone, reference compound]
- ED25 [1]: 1 mg/kg
- relative effect (Retardation of the UV-Erythema) [1]: 1,0
- ED20 [2]: 100 mg/kg/day
- relative effect (Retardation of the granulation tissue formation) [2]: 1.0
- ED25 [3]: 10 mg/kg
- relative effect (Retardation of the Carrageenin Edema) [3]: 1.0

SMILES: O=C(O)Cc1c(-c2ccc(Cl)cc2)nn(-c2ccccc2)c1Cl [II, 5-chloro-3-p-chlorophenyl-1-phenyl-pyrazole-4-acetic acid]
- ED25 [1]: 0.15 mg/kg
- relative effect (Retardation of the UV-Erythema) [1]: 6.7
- ED20 [2]: 3 mg/kg/day
- relative effect (Retardation of the granulation tissue formation) [2]: 33.3
- ED25 [3]: 1.5 mg/kg
- relative effect (Retardation of the Carrageenin Edema) [3]: 6.7
- LD5 [4]: 18 mg/kg/die
- selectivity ratio [5]: 6
- LD50 at 240 h [6]: 530 mg/kg
- selectivity ratio [6]: 353

SMILES: O=C(O)Cc1c(-c2ccccc2)nn(-c2ccccc2)c1Cl [III, 5-chloro-1,3-diphenyl-pyrazole-4-acetic acid]
- ED25 [1]: 0.25 mg/kg
- relative effect (Retardation of the UV-Erythema) [1]: 4.0
- ED20 [2]: 8 mg/kg/day
- relative effect (Retardation of the granulation tissue formation) [2]: 12.5
- ED25 [3]: 1 mg/kg
- relative effect (Retardation of the Carrageenin Edema) [3]: 10.0
- LD5 [4]: 100 mg/kg/die
- selectivity ratio [5]: 12.5
- LD50 at 240 h [6]: 1200 mg/kg
- selectivity ratio [6]: 1200

SMILES: COc1ccc(-c2nn(-c3ccccc3)c(Cl)c2CC(=O)O)cc1 [IV, 5-chloro-3-p-methoxyphenyl-1-phenyl-pyrazole-4-acetic acid]
- ED25 [3]: 12 mg/kg
- relative effect (Retardation of the Carrageenin Edema) [3]: 0.8
- LD50 at 240 h [6]: 1100 mg/kg
- selectivity ratio [6]: 91.7
